The source of these data is patent US20220354098A1, “Genetically Modified Non-Human Animals and Methods of Use Thereof” (YALE UNIVERSITY, priority 2019, published 2022).

For one assay, the system named is C3 and C5 complement. As to conditions: cited from earlier work.
The target in assay [1] is T1, scavenger receptor B1 (SR-B1) (Mus musculus, UniProt Q61009).
T1 construct: endogenous in cells
T1 sequence (Q61009 1-509): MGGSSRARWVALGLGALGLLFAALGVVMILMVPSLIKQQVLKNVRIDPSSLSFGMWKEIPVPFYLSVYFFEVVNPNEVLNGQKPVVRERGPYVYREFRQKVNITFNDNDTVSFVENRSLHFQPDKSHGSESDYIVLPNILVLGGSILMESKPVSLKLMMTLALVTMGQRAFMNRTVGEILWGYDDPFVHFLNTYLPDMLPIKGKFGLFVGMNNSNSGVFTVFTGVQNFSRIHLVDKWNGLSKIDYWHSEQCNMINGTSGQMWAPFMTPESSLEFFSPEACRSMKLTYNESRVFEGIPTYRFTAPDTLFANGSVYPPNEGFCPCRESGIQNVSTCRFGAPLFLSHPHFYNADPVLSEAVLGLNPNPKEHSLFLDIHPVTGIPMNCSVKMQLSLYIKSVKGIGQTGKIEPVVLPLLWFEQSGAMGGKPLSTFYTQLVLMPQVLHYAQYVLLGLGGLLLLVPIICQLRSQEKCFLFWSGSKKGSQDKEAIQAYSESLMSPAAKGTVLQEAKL
The experiment in a line: SR-B1 inhibitors in RGSKI mice: survival of transfused human RBCs in peripheral blood. It is filed as in vivo. The following applies: 2 mg per mouse, one hour before human RBC infusion. The method, then: Inhibitor of scavenger receptor B1 can protect human RBCs in the mouse system. RGSKI mice were treated with scavenger receptor B1 named BLT-1 (2 mg per mouse). One hour after treatment, mice were infused with human RBCs and peripheral blood was collected at indicated time points. Control: PBS.
Inhibitor of scavenger receptor B1 can protect human RBCs in the mouse system. RGSKI mice were treated with scavenger receptor B1 named ITX7650 or ITX5061 (1 mg per mouse) obtained from iTherX. One hour after treatment, mice were infused with human RBCs and peripheral blood was collected at indicated time points. Control: PBS.

The next assay relates to Fah-KO mouse hepatocytes. Put plainly: NTBC rescue of Fah-KO mouse hepatocytes. In kind it is in vivo. As to conditions: NTBC in drinking water. The text has this: MISTRGFah are viable, fertile, and can be bred as homozygotes when maintained on drinking water supplemented with 2-(2-nitro-4-trifluoromethylbenzoyl)-1,3-cyclohexanedione (NTBC), that blocks tyrosine metabolism upstream of FAH and prevents buildup of hepatotoxic metabolites. At 8 weeks of age, MISTRGFah. mice were implanted with commercially available, adult human hepatocytes (HuHep) via direct injection into the splenic vein, followed by gradual withdrawal of NTBC water. Regulated buildup of intracellular FA results in death of murine Fah^−/− hepatocytes and regeneration with HuHep with up to 90% repopulation by HuHep (Azuma H et al., 2007, Nature Biotechnology, 25:903-910). When plasma human albumin levels reached 2 mg/dL (FIG. 11A), indicative of significant (˜80%) HuHep repopulation, HuHepMISTRGFah mice were sublethally (80cGy) irradiated and each mouse was engrafted with […] fetal liver (FL) derived CD34+ cells. MISTRG (80cGy), MISTRGW41 and NSGW41 (no irrad) served as controls to assess the effects of human liver vs W41 mutation vs cytokine humanization on erythropoiesis and huRBC in circulation. 10 weeks post transplantation mice were analyzed for engraftment and. specifically erythroid maturation and PB huRBC.

Turning to cobra venom factor, in the assay with C3 and C5 complement (CVF with concurrent liposomal clodronate), the “Maximum human RBC chimerism” value is listed as around 3%. Moreover, the “% of circulating huRBC” value in the assay on C3 and C5 complement (only in conjunction with liposomal clodronate in NOD/SCID mice) is listed as “increased the % of circulating huRBC”. The huRBC survival result with C3 and C5 complement (only when MΦs are depleted concurrently with liposomal clodronate) is recorded as “significantly prolonged”.
Regarding `CCCCCCC1CCCC1=NNC(N)=S` (centres unmarked) [BLT-1], the “Protection of transfused human red blood cells in mouse periphery” value in assay [1] is “protected”.
On to `O=C1CCCC(=O)C1C(=O)c1ccc(C(F)(F)F)cc1[N+](=O)[O-]` [NTBC, 2-(2-nitro-4-trifluoromethylbenzoyl)-1,3-cyclohexanedione], for which, in the assay with Fah-KO mouse hepatocytes, the “Rescue of Fah-KO mouse hepatocytes” value is “rescues the Fah-KO mouse hepatocytes from death”.
